Earlier results, collected in US20140030308A1, “IMPLANTS AND PROCEDURES FOR PROMOTING AUTOLOGOUS STEM CELL GROWTH” (priority 2012, published 2014).

Conditions: general statement used to time administration before stent placement

Compound: c1cc(CN2CCCNCCNCCCNCC2)ccc1CN1CCCNCCNCCCNCC1 [Prelixafor, 1,1′-[1,4-phenylenebis(methylene)]bis-1,4,8,11-tetraazacyclotetradecane]
- half-life: about 8 hours
